Reference: publication PMC2652713, “Molecular Blocking of CD23 Supports Its Role in the Pathogenesis of Arthritis” (PLoS ONE, 2009)

Experiments:
[1] = system: healthy human PBL-derived macrophages; experiment: Inflammatory mediator release from healthy human PBL-derived macrophages; format: cell-based
Procedure: Figure 4 Inhibition of inflammatory mediator generation from healthy human PBL-derived macrophages by p30A. Decreased levels of TNF-α (A), IL-6 (B), IL-1β, IL-8 and IL-10 (C) were detected in CD23-activated cells after incubation with p30A. […] Values are mean±s.d. of cells from 5 (IL-6, TNF-α) or 2 (IL-1β, IL-8, IL-10) different donors.
(§1) Monocytes or macrophages were activated through CD23 pathway: while monocytes/macrophages from RA patients express CD23, monocytes from healthy donors must be pre-activated to express surface CD23 as described. This pre-activation was obtained by incubation of healthy monocytes with recombinant human IL-4 (20 ng/ml) during 48 h at 37°C; After washing, all cell populations were tested by flow cytometry for their surface CD23 expression (>80% CD23^+) and then incubated in the presence of cross-linking CD23-MAb (clones 135 or DM2, IgG1k, 20 µg/ml) during 48–72 h, or IgE and anti-IgE as described, [17]. When indicated, peptides were added to the cells 2 h prior to their activation. Cells supernatants were then analyzed for their nitric oxide content (see below) and for the presence of cytokines: levels of TNF-α and IL-6 were determined in duplicates for each sample by a specific ELISA (R&D, Paris, France) while levels of IL-1β, IL-8 and IL-10 was determined using FlowCytomix Human Th1/Th2 Kit as recommended (Bender Medsystems, Vienna, Austria).

[2] = system: RA patients derived monocytes/macrophages; experiment: Inflammatory mediator release from rheumatoid arthritis patients' monocytes/macrophages; format: cell-based, human; conditions: peripheral and synovial fluid monocytes/macrophages of 7 RA patients; 1 h pre-incubation, CD23 activation; 72 h
From the text: Figure 5 p30A inhibits the production of CD23-dependent inflammatory mediator release in cells from rheumatoid arthritis (RA) patients. (A) PBL and synovial monocytes/macrophages from RA patients were labeled with anti-CD23-FITC or isotype-matched (Iso) McAb and compared to healthy PBL. Representative fluorescence intensity data obtained from one case, out of 11 distinct patients or healthy individuals. (B) Inhibition of inflammatory mediator release from RA patients derived monocytes/macrophages. PBL monocytes or macrophages collected from synovial liquid were activated through CD23 after 1 h pre-incubation with/without p30A or pCtl. Cell supernatants were collected 72 h later and nitrites, TNF-α and IL-6 were quantified. Values are expressed as mean±s.e.m from 7 patients' cells.
Peripheral blood samples pre-tested for the absence of HIV or hepatitis virus infections were obtained from healthy volunteers (EFS Aquitaine, Bordeaux Blood Bank). We also collected paired peripheral blood and synovial fluid from seven patients, who fulfilled the American College of Rheumatology criteria for RA, during arthritic crisis. Written informed consent was obtained from all the patients. This study was carried out in compliance with the Helsinski Declaration and was approved by the National Ethical Authorities. All seven patients had previously received conventional therapy but none has been given TNF blocker or any other biologic treatment for their condition. […]
Monocytes or macrophages were activated through CD23 pathway: while monocytes/macrophages from RA patients express CD23, monocytes from healthy donors must be pre-activated to express surface CD23 as described. […] Cells supernatants were then analyzed for their nitric oxide content (see below) and for the presence of cytokines: levels of TNF-α and IL-6 were determined in duplicates for each sample by a specific ELISA (R&D, Paris, France) while levels of IL-1β, IL-8 and IL-10 was determined using FlowCytomix Human Th1/Th2 Kit as recommended (Bender Medsystems, Vienna, Austria). […]

[3] = Weight and intestinal bleeding in AIA rats; format: in vivo, rat, Female Lewis; conditions: 50 days, data not shown
Procedure: Adjuvant arthritis was induced in six week-old animals by subcutaneous injection at the base of the tail of 300 µl containing 1.8 mg of inactivated Mycobacterium butyricum (Difco Laboratories, Detroit, MI) diluted in emulsion of 8 ml Vaseline, 1 ml polysorbate 80, and 1 ml PBS (Phosphate Buffer Saline, Eurobio). Rats were boosted one week later following the same procedure. Observation was conducted for up to 50 days following immunization for clinical signs of arthritis. Rats were divided in different groups of 8 rats. Groups were treated with five injections (every 2 days) of either p30A (10, 50 or 100 mg in a PBS solution), pCtl, hydrocortisone (Sigma Aldrich) or PBS solution. Injections were initiated two days after the appearance of first arthritic symptoms (therapeutic) or on the first day of immunization (preventive). […] The severity of AIA in each paw was quantified daily using an ordinal clinical score measurement from 0 to 4 as follows: no signs of inflammation ( = 0); swelling alone (>2 fold paw diameter) ( = 1) or swelling/immobility ( = 2) of one paw; swelling ( = 3) or swelling/immobility ( = 4) of two paws. Weight evolution of rats was measured daily. […] Quantification of TNF-α and IL-1β in rat cell supernatants was performed using appropriate ELISA kits and according to manufacturer's recommendations (Biosource, Montrouge, France).

human CD23+ macrophages = experiment: IgE-mediated activation of human CD23+ macrophages; format: cell-based
Procedure: as §1

rat CD23+ macrophages = experiment: IgE-mediated activation of rat CD23+ macrophages; format: cell-based
Procedure: Peptides were added one hour prior to cell activation.

[4] = FlowCytomix, mean±s.d., 2 donors

Substance: FHENWPS [p30A]
- IL-6 level ([1]; ELISA, mean±s.d., 5 donors): Decreased
- TNF-α level ([1]; ELISA, mean±s.d., 5 donors): Decreased
- IL-1β level [1, 4]: Decreased
- IL-8 level [1, 4]: Decreased
- IL-10 level [1, 4]: Decreased
- inhibition of CD23-mediated inflammatory mediators at protein level ([1]; TNF-α, IL-6, IL-1β, IL-8 and IL-10 in supernatants): significantly inhibited all CD23-mediated activation of inflammatory mediators at protein levels
- IL-6 release [2]: reversed inflammatory mediators at the same levels than control cell-supernatants
- TNF-α release [2]: reversed inflammatory mediators at the same levels than control cell-supernatants
- nitric oxide (nitrites) release [2]: reversed inflammatory mediators at the same levels than control cell-supernatants
- intestinal bleeding [3]: neither intestinal bleeding was observed
- weight loss [3]: no weight loss
- IgE-mediated activation of human CD23+ macrophages (human CD23+ macrophages): decreased IgE-mediated activation of both human and rat CD23^+ macrophages
- IgE-mediated activation of rat CD23+ macrophages (rat CD23+ macrophages): decreased IgE-mediated activation of both human and rat CD23^+ macrophages
